Source: paper PMC2978705, “Thermodynamic Additivity of Sequence Variations: An Algorithm for Creating High Affinity Peptides Without Large Libraries or Structural Information” (PLoS ONE, 2010)
Blank lines part the entries; values can stand above or below the sequence they belong to. Where no end group is shown, it is not given here.

What was measured:
Assay type in all cases: binding
[1] = target: transferrin (Homo sapiens, UniProt P02787); experiment: Equilibrium SPR affinity of TRF26 peptides for immobilized transferrin; details: peptide concentration series
[2] = target: T1, TNF-α (Homo sapiens, UniProt P01375); experiment: Equilibrium SPR affinity of peptides for captured TNF-α
Description: Point-variant libraries were prepared in 96-well stock plates as described in the supporting information. From the stock plate, peptides were diluted to 50 µM or 10 µM in Biacore HBS-EP buffer (GE Healthcare, Piscataway, NJ) containing 1 mg/ml carboxymethyl-dextran (Sigma-Aldrich, St. Louis, MO) to reduce non-specific binding to the CM-5 SPR chip surface. Biotinylated TNF-α was captured on a neutravidin coated Biacore CM-5 chip (GE Healthcare, Piscataway, NJ) at different levels on spots 1, 2, 4, and 5 across all four flow cells corresponding to a low to moderate Rmax range of 40-200 RU. Spot 3 on all flow cells contained only immobilized neutravidin and served as a reference spot.
Responses were normalized to the predicted Rmax so that results from different TNF-α capture levels could be directly compared.
Sequences containing multiple enhancing point variations were synthesized using standard solid-phase synthesis and purified. Multiple variant affinities were determined with the same protocol used for point-variant affinities.
Peptide binding energies and dissociation constants (Kd) were calculated separately as a mean and standard error of all replicate measurements.
Text S1: Experimental Details […]
Point-Variant Libraries. Point-variant libraries were ordered in PEPScreen® 96 -vial format from Sigma-Genosys (St. Louis, MO). The purity of each peptide in the library was […]
was dissolved in HBS-N buffer to an approximate 2 mg/ml concentration, each vial was centrifuged to spin insoluble peptide to the bottom of the vial. Supernatant was collected from each vial and transferred to a 96-well plate, peptide supernatant concentrations in each well was measured using A280 absorbance and a predicted molar extinction coefficient (ε280) based on the specific peptide sequence. Based on the supernatant concentrations, all the […]
plate(s). All SPR screens of the point-variants were done using dilutions from this stock […]
SPR Assays. SPR Chip Preparation. Unless otherwise noted, SPR immobilization was done on a Biacore A100 SPR system (GE Healthcare, Piscataway, NJ). A standard coupling protocol was employed to immobilize a neutravidin capture surface via exposed primary amines. The immobilization was performed at 25 °C using Sodium Acetate (10 mM in 150 mM Sodium Chloride, pH 4.5) as the running buffer. Addressable spots 1, 2, 3 on each of the four flow cells of the CM-5 dextran SPR chip (GE Healthcare, Piscataway, NJ) were activated by a 10 minute injection of a freshly prepared 1:1 solution of 400 mM 1-ethyl-3-(3-dimethylaminopropyl)-carbodimide (EDC): 100 mM N-hydroxysuccimide (NHS) in […]

[3] = target: T1, TNF-α; experiment: Kinetic fits of SPR sensorgrams; details: for koff / kon: kinetic fits of SPR sensorgrams across a concentration series; for Kd: from koff and kon of SPR kinetic fits
Description: Kinetic fits of the TNF1 and TNF1-opt SPR sensorgrams (Figure S7 in File S1) indicate that TNF1-opt has approximately an order of magnitude or more improvement in both on-rate (kon), and off-rate (koff), when compared to TNF1 (TNF1: koff = 1.6±0.5 s^−1, kon = 5.0±1.7×10^3 M^−1s^−1, TNF1-opt: koff = 0.2±0.02 s^−1 kon = 2.6±0.2×10^5 M^−1s^−1).
Figure S7. SPR sensorgram kinetic fits for TNF1 and TNF1-opt. On-rates (kon), off-rates (koff) and dissociation constants (Kd) shown were determined from kinetic fits of several sensorgrams across the same concentration series used in equilibrium binding response analysis.
(1 picture or pasted object on this page, not shown here)

[4] = target: T1, TNF-α; experiment: Solution-phase fluorescence anisotropy of labeled TNF1-opt with TNF-α; details: peptide labeled at C-terminal cysteine fixed at 100 nM, TNF-α varied 80 nM to 10 µM, triplicate
Description: Figure 4 Equilibrium binding isotherms for TNF1-opt. Outer plot: SPR normalized replicate responses performed with TNF-α captured on the SPR chip surface and variable TNF-opt concentrations flowed over the surface. Inset plot: Solution-phase fluorescence anisotropy measurements performed in triplicate with TNF1-opt labeled at the C-terminal cysteine, TNF-opt concentration was fixed at 100 nM while TNF-α concentration was varied. TNF1-opt sensorgrams are available in Figure S5 in File S1, SPR binding isotherms for all enhanced variants tested are available in Figure S6 in File S1.
TNF1 and TNF4 Lead Generation from a […] Random Peptide Screen. Peptide Library and SPR Chip Preparation. Random 20-mer peptides were prepared in 384-well plates and diluted with Biacore HBS-EP buffer (GE Healthcare, Piscataway, NJ) containing 1 mg/ml carboxymethyl-dextran (Sigma-Aldrich, St. Louis, MO) to reduce non-specific binding to the CM-5 SPR chip surface. […]
TNF1-opt Fluorescence Polarization Affinity Characterization. Fluorescence anisotropy measurements were performed on a custom fluorimeter with an orthogonal optical configuration. […]
200 nM TNF-α and 200 nM E.coli lysate (calculated as a total protein concentration in the lysate) labeled with Alexa-555 and Alexa-647 (Invitrogen, Carlsbad, CA) respectively in PBST buffer containing 1% BSA was incubated with the microarray for 1 hour in a humidity chamber. […]

[5] = equilibrium SPR, TNF-α captured on chip, peptide concentration series, mean ± standard error of several replicates, SEM
[6] = equilibrium SPR binding responses, TNF-α

T1 sequence (P01375 77-233 limits assumed): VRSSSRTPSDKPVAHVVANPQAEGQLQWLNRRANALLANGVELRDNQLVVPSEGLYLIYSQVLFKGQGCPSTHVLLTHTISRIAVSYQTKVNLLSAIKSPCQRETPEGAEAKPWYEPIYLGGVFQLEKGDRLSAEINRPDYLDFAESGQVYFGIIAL
Chain of transferrin (P02787 20-698, species assumed): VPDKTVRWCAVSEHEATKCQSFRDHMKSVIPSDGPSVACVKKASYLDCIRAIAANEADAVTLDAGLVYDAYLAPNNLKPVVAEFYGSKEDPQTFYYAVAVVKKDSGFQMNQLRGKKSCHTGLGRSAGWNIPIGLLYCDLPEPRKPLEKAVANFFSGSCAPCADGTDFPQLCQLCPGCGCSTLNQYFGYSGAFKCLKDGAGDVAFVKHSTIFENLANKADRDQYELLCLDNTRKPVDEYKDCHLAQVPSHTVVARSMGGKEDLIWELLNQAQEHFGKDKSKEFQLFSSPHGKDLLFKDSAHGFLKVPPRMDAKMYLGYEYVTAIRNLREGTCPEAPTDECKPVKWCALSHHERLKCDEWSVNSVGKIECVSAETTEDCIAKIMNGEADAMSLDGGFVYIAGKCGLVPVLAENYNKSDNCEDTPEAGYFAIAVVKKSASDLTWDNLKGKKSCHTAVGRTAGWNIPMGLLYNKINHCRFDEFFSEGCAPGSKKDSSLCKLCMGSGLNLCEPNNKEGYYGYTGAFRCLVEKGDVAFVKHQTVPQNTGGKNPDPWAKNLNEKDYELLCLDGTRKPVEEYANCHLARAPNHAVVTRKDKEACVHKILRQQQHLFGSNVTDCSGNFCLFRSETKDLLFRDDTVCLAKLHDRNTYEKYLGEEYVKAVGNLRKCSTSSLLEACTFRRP

Sequence: AHKVVYQRQIRFAYNRYGSC [P6Y+H12F]
Kd [1]: 0.5 ± 0.1 µM

Sequence: FERDYLKMPWSFLQSRQGSC [P5Y+M7K]
Kd [2, 5]: 27 ± 1.8 µM

Sequence: FERDYLMMPWKFLQSRQGSC [P5Y+S11K]
Kd [2, 5]: 24 ± 1.4 µM

Sequence: FERSYLKMPWSFLQSRQGSC [D4S+P5Y+M7K]
Kd [2, 5]: 14 ± 1 µM

Sequence: FERSYLMMPWKFLQSRQGSC [D4S+P5Y+S11K]
Kd [2, 5]: 7 ± 0.5 µM

Sequence: FERYPLKMPWSFLQSRQGSC [D4Y+M7K]
Kd [2, 5]: 17 ± 1.9 µM

Sequence: FERYPLMMPWKFLQSRQGSC [D4Y+S11K]
Kd [2, 5]: 9.3 ± 0.7 µM

Sequence: FERYPLMMPWSFLQSRQGSC [Peptide D4Y]
Kd [2, 5]: 44 ± 4.8 µM

Sequence: YGPSYAFKITRFHQQSSGSC [Peptide D5Y]
Kd [2, 6]: 0.28 ± 0.04 µM

Results, then the sequence that gave them:

Kd [1]: 9.7 ± 1.6 µM
Sequence: AHKVVPQRQIRFAYNRYGSC [Peptide H12F]

Kd [1]: 85 ± 14 µM
Sequence: AHKVVPQRQIRHAYNRYGSC [TRF26]

Kd [1]: 8.6 ± 1.6 µM
Sequence: AHKVVYQRQIRHAYNRYGSC [Peptide P6Y]

Kd [2, 5]: 57 ± 20 µM
Sequence: FERDPLKMPWSFLQSRQGSC [Peptide M7K]

Kd [2, 5]: 40 ± 7.2 µM
Sequence: FERDPLMMPWKFLQSRQGSC [Peptide S11K]

Kd [2, 5]: 160 ± 19 µM | koff [3]: 1.6 ± 0.5 s⁻¹ | kon [3]: 5000 ± 1.7e+06 M⁻¹ s⁻¹
Sequence: FERDPLMMPWSFLQSRQGSC [TNF1]

Kd [2, 5]: 58 ± 3.4 µM
Sequence: FERDYLMMPWSFLQSRQGSC [Peptide P5Y]

Kd [2, 5]: 1.6 ± 0.3 µM | Kd [4]: 1.1 ± 0.2 µM | Kd ([3]; read-out: Kd calculated from rate constants): 0.7 ± 0.02 µM | koff [3]: 0.2 ± 0.02 s⁻¹ | kon [3]: 260000 ± 2e+09 M⁻¹ s⁻¹
Sequence: FERSYLKMPWKFLQSRQGSC [TNF1-opt]

Kd [2, 6]: 0.38 ± 0.08 µM
Sequence: WGPSDAFKITRFHQQSSGSC [Peptide Y1W]

Kd [2, 6]: 0.2 ± 0.03 µM
Sequence: WGPSYAFKITRFHQQSSGSC [Y1W+D5Y]

Kd [2, 6]: 0.09 ± 0.02 µM | Kd ([3]; read-out: Kd resulting from rate constants): 0.13 ± 0.03 µM | koff [3]: 0.0075 ± 8e-07 s⁻¹ | kon [3]: 58000 ± 1.2e+08 M⁻¹ s⁻¹
Sequence: WGPSYAFKIYRFHQQSSGSC [TNF4-opt]

Kd [2, 5]: 23 ± 3.5 µM
Sequence: YGPSDAFKITRFHQQSSGSC [TNF4]

Kd [2, 6]: 0.31 ± 0.01 µM
Sequence: YGPSDAFKIYRFHQQSSGSC [Peptide T10Y]
